“Also recorded” adds a separate entry of the source.
Key:
[1] = Plasma tinzaparin level after oral administration to mice (colorimetric assay); type: in vivo; conditions: oral gavage, 1.6 mg/kg
Protocol: Nanoformulated LMWH as shown in Examples 1-5 were administered orally to mice versus standard LMWH at the same dose. Blood samples were withdrawn at different time and plasma levels of LMWH were measured using colorimetric assay.
FIG. 11 is a graph of plasma tinzaparin level versus time profiles in mice with formulations administered by oral gavage into the mice at dose of 1.6 mg/kg, in accordance with embodiments of the present invention. Graphs for Tinzaparin, and Chitosan NPs with positive charge and with negative charge are shown. Data are shown as mean±SD (n=4).

RBC from SCD subjects = experiment: Anti-sickling of RBC from SCD subjects under hypoxia (blood smears); type: cell-based, human; conditions: for anti-sickling (average): 10 ug/ml blood
Protocol: (§1) Red Blood Cell (RBC) sickling were studied in blood samples obtained from 12 sickle cell subjects and 6 samples from healthy volunteers matched in terms of age and gender. The blood samples from the subjects were withdrawn and mixed into EDTA tube (10 ml), and then divided into 2 tubes 4-5 ml each (One containing S-NACH 10-100 ug/ml blood added at 10 ul/1 ml blood or PBS buffer solution).
(§2) Blood samples were incubated for 2-3 hours at room temperature and then blood smears were obtained for monitoring shape of RBCs (take photos for later quantitation number of normal vs. sickle RBCs). Then blood samples were centrifuged to get the plasma, and the plasma were frozen for further testing of various biomarkers.

[2] = test system: RBC from healthy subjects; experiment: Effect on morphology of RBC from healthy subjects; type: cell-based, human
Protocol: as §1, §2

Tinzaparin [standard tinzaparin]
blood levels after oral administration [1]: no detectable blood levels

OC[C@H]1O[C@@](CO)(O[C@H]2O[C@H](CO)[C@@H](O)[C@H](O)[C@H]2O)[C@@H](O)[C@@H]1O [sucrose, reference compound]
effect on the average % of sickle RBC (RBC from SCD subjects; Patient #7, over 2-4 hours hypoxia at 25 degree centigrade): no significant effect
effect on the sickling (RBC from SCD subjects; Patient #7 acute crisis, hypoxia 2-4 hours at 25 degree centigrade): no significant effect

Sulfated Non-Anticoagulant Heparin [SNACH]
anti-sickling (average) (RBC from SCD subjects; hypoxia 2-4 hours at 25 degree centigrade, SCD subject #5): > 90%
anti-sickling (average) (RBC from SCD subjects; hypoxia 2-4 hours at 25 degree centigrade, SCD subjects): > 90%
formation of irreversibly sickled cells (RBC from SCD subjects; 2-24 hours incubation under 95% N2/5% CO2, high concentration): significantly decreased
effect on normal morphology of RBC [2]: no effect; also recorded: without any effect

— patent US9822190B2, “Compositions and method for anti-sickling of red blood cells in sickle cell disease” (priority 2015, dated 2017)
